# Test results as given in BindingDB's records for patent US20250066318 (Prothena Biosciences, 2025).
# Target: Dual specificity tyrosine-phosphorylation-regulated kinase 1A (Homo sapiens, UniProt Q13627)
# Experiment: DYRK1A Inhibition Assay
# Procedure: 1. Add 5 μL enzyme & substrate mixture to each well in Column 2-23 and A24-H24 wells of the 384-well assay plate;2. Add 5 μL 0% Phosphorylation control to A1-H1 and I24-P24 wells of the assay plate;3. Add 5 μL 100% Phosphorylation control to I1-P1 wells of the assay plate;4. Spin the assay plate (1000 rpm, 1 minute @23° C.);5. Incubate enzyme with compounds for 15 minutes at 23° C.;6. Add 5 μL ATP solution to each well of the assay plate;7. Spin the plate (1000 rpm, 1 minute @23° C.);8. Incubate the assay plate for 90 minutes at 23° C.;9. Add 10 μL Development reagent A to each well of the assay plate;10. Centrifuge the plate at 1000 rpm about 15 seconds and seal a film over assay plate. Incubate the assay plate for 30 minutes at 23° C.11. Read assay plates on Envision (see Tables A, B, and C).Final Compound ConcentrationsAssay buffer: 50 mM Hepes pH7.5, 10 mM MgCl2, 1 mM EDTA, 0.01% Brij-35DYRK1A: 1 nMATP: 20 μMSer/Thr 18 peptide: 2 μMReaction time: 90 minutes.
row,IC50,Structure (SMILES)
1,550 nM,"N#Cc1cccc(Oc2cncc3ccc(-c4cnc5ccccn45)cc23)c1 [US20250066318, Compound I.6]"
2,55 nM,"Cc1c(F)ncc2ccc(-c3cnn(C)c3)cc12 [US20250066318, Compound I.64]"
3,> 1000 nM,"O=C(O)[C@H]1C[C@H](Nc2c(-c3cncs3)ccc3cnccc23)C1 [US20250066318, Compound I.67]"
4,550 nM,"O=C(O)[C@H]1C[C@@H](Nc2c(-c3cncs3)ccc3cnccc23)C1 [US20250066318, Compound I.68]"
5,550 nM,"O=C(O)[C@H]1C[C@@H](Oc2c(-c3cncs3)ccc3cnccc23)C1 [US20250066318, Compound I.69]"
6,550 nM,"O=C(O)[C@H]1C[C@H](Oc2c(-c3cncs3)ccc3cnccc23)C1 [US20250066318, Compound I.70]"
7,55 nM,"O=C(O)[C@H]1C[C@@H](Nc2ncc(-c3ccc4cnccc4c3)s2)C1 [US20250066318, Compound I.71]"
8,< 10 nM,"O=C(O)C1CN(c2cn3ncc(-c4ccc5cnccc5c4)c3cn2)C1 [US20250066318, Compound I.73]"
9,55 nM,"O=C(O)C1CC(Nc2cc3cc(-c4cncs4)ccc3cn2)C1 (stereo not drawn) [US20250066318, Compound I.74]"
10,55 nM,"Cc1ncc2ccc(-c3cncs3)cc2c1OC1CNC1 [US20250066318, Compound I.75]"
11,550 nM,"Cc1ncc2ccc(-c3cncs3)cc2c1OC1CN(C)C1 [US20250066318, Compound I.76]"
12,55 nM,"Cc1ncc2ccc(-c3cnn(C)c3)cc2c1OC1CNC1 [US20250066318, Compound I.77]"
13,55 nM,"Cc1ncc2ccc(-c3cnn(C)c3)cc2c1OC1CN(C)C1 [US20250066318, Compound I.78]"
14,< 10 nM,"Cc1ncc2ccc(-c3cncs3)cc2c1O[C@H]1C[C@@H](O)C1 [US20250066318, Compound I.79]"
15,< 10 nM,"Cc1ncc2ccc(-c3cncs3)cc2c1O[C@H]1C[C@H](O)C1 [US20250066318, Compound I.80]"
16,< 10 nM,"Cc1ncc2ccc(-c3cnn(C)c3)cc2c1O[C@H]1C[C@@H](O)C1 [US20250066318, Compound I.81]"
17,< 10 nM,"Cc1ncc2ccc(-c3cnn(C)c3)cc2c1O[C@H]1C[C@H](O)C1 [US20250066318, Compound I.82]"
18,< 10 nM,"Cn1cc(-c2ccc3cnc(NC(=O)OC4(C)CC4)cc3c2)cn1 [US20250066318, Compound I.83]"
19,< 10 nM,"CS(=O)(=O)N1CCC(Oc2cncc3ccc(-c4cnn5cc(C(F)(F)F)ccc45)cc23)CC1 [US20250066318, Compound I.85]"
20,< 10 nM,"CC(=O)N1CCC(Oc2cncc3ccc(-c4cnn5cc(C(F)(F)F)ccc45)cc23)CC1 [US20250066318, Compound I.86]"
21,550 nM,"O=C(O)C1CCN(Cc2cncc3ccc(-c4cnn5cc(C(F)(F)F)ccc45)cc23)CC1 [US20250066318, Compound I.88]"

row,IC50,Structure (SMILES)
1,55 nM,"CC(=O)N1CCN(Cc2cncc3ccc(-c4cnn5cc(C(F)(F)F)ccc45)cc23)CC1 [US20250066318, Compound I.89]"
2,< 10 nM,"Cn1cc(C#Cc2ncc(-c3ccc4cnccc4c3)s2)ccc1=O [US20250066318, Compound I.92]"
3,< 10 nM,"COc1cncc2ccc(-c3cnn4cc(-c5ccc(=O)n(C)c5)cnc34)cc12 [US20250066318, Compound I.93]"
4,550 nM,"N#Cc1cncc2ccc(-c3cnc(C#CC4CCOCC4)s3)cc12 [US20250066318, Compound I.94]"
5,< 10 nM,"C(#CC1CCOCC1)c1ncc(-c2ccc3cncc(OC4CCNCC4)c3c2)s1 [US20250066318, Compound I.95]"
6,< 10 nM,"CC(=O)N1CCC(Oc2cncc3ccc(-c4cnc(C#CC5CCOCC5)s4)cc23)CC1 [US20250066318, Compound I.96]"
7,< 10 nM,"CN1CCC(Oc2cncc3ccc(-c4cnc(C#CC5CCOCC5)s4)cc23)CC1 [US20250066318, Compound I.97]"
8,550 nM,"C(#CC1CCOCC1)c1ncc(-c2ccc3cnc(OC4CCNCC4)cc3c2)s1 [US20250066318, Compound I.98]"
9,> 1000 nM,"CC(=O)N1CCC(Oc2cc3cc(-c4cnc(C#CC5CCOCC5)s4)ccc3cn2)CC1 [US20250066318, Compound I.99]"
10,550 nM,"CN1CCC(Oc2cc3cc(-c4cnc(C#CC5CCOCC5)s4)ccc3cn2)CC1 [US20250066318, Compound I.100]"
11,> 1000 nM,"CC(=O)N1CCN(Cc2cc3cc(-c4cnc(C#CC5CCOCC5)s4)ccc3cn2)CC1 [US20250066318, Compound I.101]"
12,> 1000 nM,"CN(C)[C@H]1CC[C@H](Oc2cc3cc(-c4cnc(C#CC5CCOCC5)s4)ccc3cn2)CC1 [US20250066318, Compound I.102]"
13,> 1000 nM,"CN(C)[C@H]1CC[C@@H](Oc2cc3cc(-c4cnc(C#CC5CCOCC5)s4)ccc3cn2)CC1 [US20250066318, Compound I.103]"
14,55 nM,"CC(C)CN1CCC(C#Cc2ncc(-c3ccc4cnc(Cl)cc4c3)s2)CC1 [US20250066318, Compound I.104]"
15,55 nM,"CC(C)CN1CCC(C(=O)Nc2ncc(-c3ccc4cnc(C5CC5)cc4c3)s2)CC1 [US20250066318, Compound I.105]"
16,55 nM,"Cn1cc(-c2ccc3cnc(C#CC4CCNCC4)cc3c2)cn1 [US20250066318, Compound I.106]"
17,55 nM,"CN1CCC(C#Cc2cc3cc(-c4cnn(C)c4)ccc3cn2)CC1 [US20250066318, Compound I.107]"
18,55 nM,"Cn1cc(-c2ccc3cnc(C#CC4CCOCC4)cc3c2)cn1 [US20250066318, Compound I.108]"
19,> 1000 nM,"CN1CCc2c(c(-c3cnc4c(-c5ccc(C#N)cc5)cnn4c3)cn(C)c2=O)C1 [US20250066318, Compound II.43]"
20,625 nM,"Cn1c(C2CCNCC2)cn2ncc(-c3ccc(C#N)cc3)c2c1=O [US20250066318, Compound II.44]"
21,625 nM,"CN1CCC(c2cn3ncc(-c4ccc(C#N)cc4)c3c(=O)n2C)CC1 [US20250066318, Compound II.45]"

row,Structure (SMILES),IC50
1,"CN1CC=C(c2cn3ncc(-c4ccc(C#N)cc4)c3c(=O)[nH]2)CC1 [US20250066318, Compound II.46]",175 nM
